From patent US7892756B2, “Human salty taste receptor and methods of modulating salty taste perception” (Monell Chemical Senses Center, priority 2006, dated 2011)
“Also recorded” adds a separate entry of the source. Like-named read-outs stand apart in the source and are kept apart here.

Assays:
[1] = tested on: salty taste response in humans; conditions: in vivo, cited from earlier work
[2] = tested on: catfish putative taste receptor for L-arginine; experiment: Single channel recording of purified receptor reconstituted in planar lipid bilayers (FIG. 9); type: biochemical; conditions: transmembrane potential −100 mV
Description: Proteoliposomes containing purified receptor protein from catfish taste epithelium are fused to planar lipid bilayers. Control records (trace shown in part A) were obtained after addition of proteolipisomes to the membrane bathing solution before addition of L-Arg. […] Transmembrane potential was −100 mV. Traces shown in all panels are continuous records of that specific condition.
This example, in part, describes the extraction, purification, and membrane-reconstitution of a taste receptor for L-arginine (L-arg) from catfish. The methods, which are published and described in Grosvenor, W et al. (2004) BMC Neuroscience 5:25, can be readily adapted for reconstitution of ENaC, ENaC subunits, and salty taste receptors in lipid membranes as described below. The catfish has served as a model for taste receptor studies because the receptors are very sensitive to certain amino acids. One such amino acid is L-arg. Like the ENaC, the taste receptor for L-arg in catfish is an ion channel. Parallel approaches are utilized in solubilizing the L-arg and ENaC-type receptors. The receptors differ primarily by origin—the L-arg receptor is purified from catfish taste tissue and the ENaC subunits are synthesized by a heterologous cell culture expression system. […]

[3] = tested on: L-ArgR (native taste receptor for L-arginine); experiment: Taste nerve recordings from the animal, L-ArgR in its native state; type: in vivo, catfish
Description: The properties of the L-ArgR as measured in the bilayer are very similar to those observed through taste nerve recordings from the animal, when the L-ArgR is in its native state.

[4] = molecular target: T1, ENaC composed of human delta, beta, gamma (Homo sapiens, UniProt P51172, C696Y); experiment: Amiloride inhibition of ENaC of different composition (FIG. 4); type: biochemical; conditions: gamma ENaC compared with human alpha
T1 sequence (P51172 1-638 isoform P51172-1 C532Y): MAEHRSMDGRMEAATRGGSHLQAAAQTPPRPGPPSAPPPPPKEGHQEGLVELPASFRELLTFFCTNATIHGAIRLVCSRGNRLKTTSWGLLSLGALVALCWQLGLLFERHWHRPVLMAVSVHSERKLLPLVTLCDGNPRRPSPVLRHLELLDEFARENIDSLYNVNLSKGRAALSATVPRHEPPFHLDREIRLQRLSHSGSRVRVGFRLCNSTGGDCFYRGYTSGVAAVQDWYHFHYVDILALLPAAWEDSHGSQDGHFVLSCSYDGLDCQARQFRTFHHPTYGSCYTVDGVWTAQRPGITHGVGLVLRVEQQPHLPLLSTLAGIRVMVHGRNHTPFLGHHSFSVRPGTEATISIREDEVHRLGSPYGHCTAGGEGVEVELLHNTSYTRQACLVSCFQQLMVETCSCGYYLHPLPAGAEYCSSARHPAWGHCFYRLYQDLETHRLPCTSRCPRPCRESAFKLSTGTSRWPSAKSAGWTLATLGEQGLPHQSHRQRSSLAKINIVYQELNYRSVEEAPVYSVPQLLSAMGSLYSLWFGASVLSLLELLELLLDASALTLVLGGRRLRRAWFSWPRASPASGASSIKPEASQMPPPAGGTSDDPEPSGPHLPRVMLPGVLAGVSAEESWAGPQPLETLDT
T1 sequence (P51168 1-640 partner): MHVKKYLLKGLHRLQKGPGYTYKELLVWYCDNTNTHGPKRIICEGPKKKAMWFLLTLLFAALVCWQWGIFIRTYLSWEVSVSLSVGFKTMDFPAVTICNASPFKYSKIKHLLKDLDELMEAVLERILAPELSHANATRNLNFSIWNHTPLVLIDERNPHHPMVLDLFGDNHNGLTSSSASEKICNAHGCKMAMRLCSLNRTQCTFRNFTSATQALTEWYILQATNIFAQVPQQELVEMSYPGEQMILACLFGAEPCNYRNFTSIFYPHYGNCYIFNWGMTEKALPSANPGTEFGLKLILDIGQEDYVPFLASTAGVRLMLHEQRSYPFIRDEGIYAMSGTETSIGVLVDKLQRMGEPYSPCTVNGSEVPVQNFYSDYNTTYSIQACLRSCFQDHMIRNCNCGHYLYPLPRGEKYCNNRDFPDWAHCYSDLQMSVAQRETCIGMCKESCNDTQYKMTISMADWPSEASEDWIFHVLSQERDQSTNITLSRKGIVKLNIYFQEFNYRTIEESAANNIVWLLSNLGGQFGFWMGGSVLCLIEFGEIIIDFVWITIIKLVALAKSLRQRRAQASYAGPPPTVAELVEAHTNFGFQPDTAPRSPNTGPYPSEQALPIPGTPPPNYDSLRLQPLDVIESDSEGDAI
T1 sequence (P51170 1-649 partner): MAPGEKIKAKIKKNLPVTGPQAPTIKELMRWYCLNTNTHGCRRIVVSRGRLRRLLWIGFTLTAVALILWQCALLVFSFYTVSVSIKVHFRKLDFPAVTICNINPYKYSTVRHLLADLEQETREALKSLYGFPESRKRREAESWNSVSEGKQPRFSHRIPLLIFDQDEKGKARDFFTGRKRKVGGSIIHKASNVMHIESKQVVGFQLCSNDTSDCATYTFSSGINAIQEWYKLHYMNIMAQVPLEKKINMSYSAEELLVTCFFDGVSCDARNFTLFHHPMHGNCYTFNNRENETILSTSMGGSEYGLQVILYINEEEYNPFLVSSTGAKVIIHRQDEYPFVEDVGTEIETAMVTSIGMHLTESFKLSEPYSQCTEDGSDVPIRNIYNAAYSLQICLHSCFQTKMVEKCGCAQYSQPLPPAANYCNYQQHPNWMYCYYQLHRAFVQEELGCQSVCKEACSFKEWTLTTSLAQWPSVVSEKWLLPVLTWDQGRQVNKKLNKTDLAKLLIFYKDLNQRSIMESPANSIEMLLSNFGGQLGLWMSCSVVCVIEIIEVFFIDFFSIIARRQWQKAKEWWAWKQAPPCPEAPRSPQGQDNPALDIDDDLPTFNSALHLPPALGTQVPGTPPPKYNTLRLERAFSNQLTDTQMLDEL

[5] = molecular target: T2, ENaC delta (δ) subunit (Homo sapiens, UniProt P51172); conditions: delta versus alpha subunit; cited from earlier work
T2 sequence (P51172 1-802): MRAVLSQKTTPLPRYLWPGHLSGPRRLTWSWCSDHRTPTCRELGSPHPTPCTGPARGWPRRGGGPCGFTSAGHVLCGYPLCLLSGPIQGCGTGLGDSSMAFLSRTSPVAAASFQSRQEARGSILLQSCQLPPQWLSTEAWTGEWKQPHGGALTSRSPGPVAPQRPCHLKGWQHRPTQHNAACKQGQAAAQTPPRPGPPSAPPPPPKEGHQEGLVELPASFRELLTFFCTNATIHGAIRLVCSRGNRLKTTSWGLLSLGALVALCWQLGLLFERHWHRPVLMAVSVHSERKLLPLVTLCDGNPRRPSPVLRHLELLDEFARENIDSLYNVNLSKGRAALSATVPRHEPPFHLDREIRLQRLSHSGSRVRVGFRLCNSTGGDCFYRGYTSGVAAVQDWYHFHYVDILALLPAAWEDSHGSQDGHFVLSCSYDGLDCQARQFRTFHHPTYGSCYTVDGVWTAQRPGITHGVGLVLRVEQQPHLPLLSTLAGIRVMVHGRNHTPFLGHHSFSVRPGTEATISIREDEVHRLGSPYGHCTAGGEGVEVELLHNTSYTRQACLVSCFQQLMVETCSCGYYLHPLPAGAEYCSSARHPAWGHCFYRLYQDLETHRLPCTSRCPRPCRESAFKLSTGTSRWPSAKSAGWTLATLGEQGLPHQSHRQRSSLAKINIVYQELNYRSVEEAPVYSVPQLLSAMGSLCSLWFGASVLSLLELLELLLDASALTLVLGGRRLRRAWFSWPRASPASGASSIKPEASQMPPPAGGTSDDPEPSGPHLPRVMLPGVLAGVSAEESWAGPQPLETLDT
T2 sequence (P51168 1-640 partner): T1 sequence (P51168 1-640 partner)
T2 sequence (P51170 1-649 partner): T1 sequence (P51170 1-649 partner)

N=C(N)NCCCC[C@H](N)C(=O)O [homoarginine]
effect on salty taste response in humans [1]: salty taste enhancers

N=C(N)N [guanidine]
effect on salty taste response in humans [1]: salty taste enhancers

[Cl-].[Na+] [NaCl, sodium chloride]
concentration at which a salty taste is imparted [1]: above 50 mM

[H]/N=C(\N/C(=N/[H])NCCCCCCNC(=N)NC(=N)Nc1ccc(Cl)cc1)Nc1ccc(Cl)cc1 [chlorhexidine]
effect on salty taste response in humans [1]: inhibitor of the salty taste response in humans

N=C(N)NCCC[C@@H](N)C(=O)O [D-Arg, D-arginine]
single channel activity after addition to the cis-side following L-Arg ([2]; 100 μM, cis-side, after 10 μM L-Arg): activity ceased | effect on the native receptor [3]: inhibits the receptor | effect on salty taste response in humans [1]: equally effective

N=C(N)NCCC[C@H](N)C(=O)O [L-Arg, L-arginine]
single channel activity after addition to the cis-side ([2]; 10 μM, cis-side of bilayer): evoked regular periodic channel activity | sensitivity of the native receptor [3]: in the tenths of uM | effect on salty taste response in humans ([1]; listed as L-arginine): equally effective

N=C(N)NC(=O)c1nc(Cl)c(N)nc1N [amiloride]
amiloride sensitivity of delta-containing ENaC relative to alpha, beta, gamma ENaC [4]: less so than the alpha; also recorded: less sensitive to amiloride | lower affinity for amiloride of delta subunit relative to alpha subunit [5]: 30 fold | effect on salty taste response in humans [1]: inability of amiloride to inhibit sodium-induced salty taste response in humans; also recorded: not sensitive to amiloride

N=C(N)NCCC[C@H](N)C(=O)O [arginine]
effect on salty taste response in humans [1]: salty taste enhancers
